For 18 compounds, IC50 results are on record in US20120142685A1, “ORGANIC COMPOUNDS” (priority 2007, published 2012).

Like-named read-outs stand apart in the source and are kept apart here.

The target in one test is T1, protein kinase D2 (PKD2) (Homo sapiens, UniProt Q9BZL6).
T1 construct: This assay is performed with full length wild-type enzyme purchase from Invitrogen; purchased Invitrogen
T1 sequence (Q9BZL6 1-878): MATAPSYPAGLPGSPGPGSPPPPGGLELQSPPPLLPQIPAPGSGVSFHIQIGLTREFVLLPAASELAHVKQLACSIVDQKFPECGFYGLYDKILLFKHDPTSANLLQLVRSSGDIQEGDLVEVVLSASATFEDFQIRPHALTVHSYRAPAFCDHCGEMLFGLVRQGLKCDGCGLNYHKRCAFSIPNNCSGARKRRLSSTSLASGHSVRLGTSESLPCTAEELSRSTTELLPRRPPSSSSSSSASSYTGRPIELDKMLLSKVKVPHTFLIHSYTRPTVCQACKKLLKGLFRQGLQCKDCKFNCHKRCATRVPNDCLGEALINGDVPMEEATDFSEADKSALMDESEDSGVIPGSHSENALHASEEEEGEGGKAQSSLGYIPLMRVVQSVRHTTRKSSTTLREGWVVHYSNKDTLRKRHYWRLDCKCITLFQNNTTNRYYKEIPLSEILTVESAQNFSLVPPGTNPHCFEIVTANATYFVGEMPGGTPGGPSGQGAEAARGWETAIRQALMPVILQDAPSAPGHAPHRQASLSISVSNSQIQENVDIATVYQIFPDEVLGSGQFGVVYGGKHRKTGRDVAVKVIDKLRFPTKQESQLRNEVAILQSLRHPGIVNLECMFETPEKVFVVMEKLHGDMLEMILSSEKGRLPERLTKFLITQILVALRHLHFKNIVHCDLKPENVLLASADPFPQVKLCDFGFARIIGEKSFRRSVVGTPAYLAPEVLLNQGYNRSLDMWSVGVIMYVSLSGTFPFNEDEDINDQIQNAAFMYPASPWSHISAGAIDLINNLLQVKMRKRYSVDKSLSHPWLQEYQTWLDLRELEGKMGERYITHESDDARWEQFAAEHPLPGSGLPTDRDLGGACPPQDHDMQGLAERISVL
The test is described as follows: PKD2 TR-FRET (LANCE) kinase assay. The test is classed as biochemical. From the text:
(§1) The assay to measure protein kinase D2 (PKD2) activity is a time-resolved fluorescence resonance transfer (TR-FRET) assay using PerkinElmer's LANCE™ technology. In this case, a biotinylated syntide-2 peptide is used as the substrate in this reaction. Phosphorylation of the syntide-2 substrate is detected by a specific antibody that recognizes the phosphorylated peptide. A second fluorophore, APC, is conjugated to streptavidin that binds the biotinylated syntide-2 peptide. […] Therefore, when the europium labeled secondary antibody binds on the phosphorylated peptide, it is brought into close contact with the APC and excites this fluorophore.
(§2) This assay is performed with full length wild-type enzyme purchase from Invitrogen. The reaction buffer consists of 35 mM Tris-HCl pH7.5, 5 mM MgCl2, 0.02% Tween-20, 20 μM ATP, 1 mM DTT and 0.2 μg/mL PKD2 enzyme. The enzyme reaction is initiated by the addition of 2 μM syntide-2 peptide substrate and the reaction carried out for 50 minutes at room temperature. The reaction is stopped by a stop/detection buffer consisting of 50 mM EDTA, 0.18 mg/mL rabbit polyclonal anti-phospho syntide-2 antibody, 0.5 nM europium labeled anti-rabbit IgG and 10 nM streptavidin conjugated APC. After a one hour incubation with the stop/detection buffer, the reaction is read on an Envision 2100 Reader using a LANCE™ Eu/APC dual protocol. […] IC50 values are calculated using an Activity Base (IDBS) software program.
(In general: Time-resolved FRET reads energy transfer from a long-lived donor to a nearby acceptor.)

The target in another test is T2, protein kinase D3 (PKD3) (Homo sapiens, UniProt O94806).
T2 construct: This assay is performed with full length wild-type enzyme that is purchased from Invitrogen; purchased Invitrogen
T2 sequence (O94806 1-890): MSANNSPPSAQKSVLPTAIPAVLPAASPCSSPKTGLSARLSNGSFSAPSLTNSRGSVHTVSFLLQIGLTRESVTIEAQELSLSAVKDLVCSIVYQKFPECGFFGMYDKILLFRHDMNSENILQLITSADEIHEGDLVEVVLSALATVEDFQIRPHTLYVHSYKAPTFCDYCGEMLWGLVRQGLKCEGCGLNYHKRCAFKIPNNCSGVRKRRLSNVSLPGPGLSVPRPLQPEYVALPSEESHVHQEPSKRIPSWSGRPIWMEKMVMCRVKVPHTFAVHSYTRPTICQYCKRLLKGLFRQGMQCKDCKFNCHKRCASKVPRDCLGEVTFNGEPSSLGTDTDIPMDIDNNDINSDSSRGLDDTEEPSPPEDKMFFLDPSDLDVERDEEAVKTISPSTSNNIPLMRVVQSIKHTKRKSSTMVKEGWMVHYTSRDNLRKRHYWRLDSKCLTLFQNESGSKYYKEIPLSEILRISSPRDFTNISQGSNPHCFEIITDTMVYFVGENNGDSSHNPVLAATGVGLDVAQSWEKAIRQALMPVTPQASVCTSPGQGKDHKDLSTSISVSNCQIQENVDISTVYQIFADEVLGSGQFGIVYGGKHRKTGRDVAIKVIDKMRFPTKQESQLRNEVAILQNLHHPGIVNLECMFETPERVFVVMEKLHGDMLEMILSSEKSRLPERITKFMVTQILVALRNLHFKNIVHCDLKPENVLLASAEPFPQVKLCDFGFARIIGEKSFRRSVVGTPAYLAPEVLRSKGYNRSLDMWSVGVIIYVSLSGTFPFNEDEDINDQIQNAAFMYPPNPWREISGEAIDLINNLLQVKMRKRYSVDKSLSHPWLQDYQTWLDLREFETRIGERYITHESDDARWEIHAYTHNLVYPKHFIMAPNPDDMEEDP
The test is described as follows: PKD3 TR-FRET (LANCE) kinase assay. The test is classed as biochemical.
Source text: as §1, with “D3 (PKD3)” for “D2 (PKD2)”
as §2, with “that is purchased” for “purchase”, “PKD3” for “PKD2”, “LANCET™” for “LANCE™”

Setting [1] is: full length wild-type enzyme, 20 μM ATP, read-out: Inhibitory Activity PKD2.
[2] abbreviates: full length wild-type enzyme, 20 μM ATP, read-out: Inhibitory Activity PKD3.

On to `CNc1cc(-c2cc3cnccc3c(NCCCO)n2)ccn1` [Example 1], for which the IC50 is 903 nM on protein kinase D2 (PKD2) (setting [1]) and 227 nM on protein kinase D3 (PKD3) (setting [2]).
On to `CNc1cc(-c2cc3cnccc3c(NC)n2)ccn1` [Example 2, 1-Methylamino-3-(2-methylaminopyridin-4-yl)-[2,6]-naphthyridine], for which the IC50 against protein kinase D2 (PKD2) was 753 nM; at protein kinase D3 (PKD3), 450 nM.
On to `c1cc2c(N3CCNCC3)nc(-c3ccnc(NC4CCCCC4)c3)cc2cn1` [Example 3, Cyclohexyl-[4-(1-piperazin-1-yl-[2,6]naphthyridin-3-yl)pyridin-2-yl]amine], for which the IC50 at protein kinase D2 (PKD2) (setting [1]) and at protein kinase D3 (PKD3) (setting [2]) was 0.3 nM in each case.
Turning to `c1ccc(Nc2cc(-c3cc4cnccc4c(N4CCNCC4)n3)ccn2)cc1` [Example 4, Phenyl-[4-(1-piperazin-1-yl-[2,6]naphthyridin-3-yl)pyridin-2-yl]amine], the IC50 at protein kinase D2 (PKD2) (setting [1]) was determined as 40 nM; at protein kinase D3 (PKD3) (setting [2]), 8 nM.
Consider `OCCNc1nc(-c2ccnc(NC3CCCCC3)c2)cc2cnccc12` [Example 5, 2-[3-(2-Cyclohexylaminopyridin-4-yl)-[2,6]naphthyridin-1-ylamino]ethanol], for which the values for the IC50 at protein kinase D2 (PKD2) (setting [1]) and at protein kinase D3 (PKD3) (setting [2]) were 1370 nM and 339 nM, respectively.
Take `CC(C)Nc1cc(-c2cc3cnccc3c(NCCO)n2)ccn1` [Example 6, 2-[3-(2-Isopropylaminopyridin-4-yl)-[2,6]naphthyridin-1-ylamino]ethanol]: the results for the IC50 at protein kinase D2 (PKD2) (setting [1]) and on protein kinase D3 (PKD3) (setting [2]) were 497 nM and 120 nM, respectively.
As to `COc1cccc(Nc2cc(-c3cc4cnccc4c(NCCO)n3)ccn2)c1` [Example 7], the IC50 was 195 nM on protein kinase D2 (PKD2) (setting [1]) and 62 nM at protein kinase D3 (PKD3) (setting [2]).
Take `CN(C)CCNc1nc(-c2ccnc(NC3CCCCC3)c2)cc2cnccc12` [Example 8, N-[3-(2-Cyclohexylaminopyridin-4-yl)-[2,6]naphthyridin-1-yl]-N′,N′-dimethylethane-1,2-diamine]: the IC50 turned out to be 259 nM at protein kinase D2 (PKD2) (setting [1]) and 58 nM on protein kinase D3 (PKD3) (setting [2]).
With `CN(C)CCNc1nc(-c2ccnc(Nc3ccccc3)c2)cc2cnccc12` [Example 9, N,N-Dimethyl-N′-[3-(2-phenylaminopyridin-4-yl)-[2,6]naphthyridin-1-yl]-ethane-1,2-diamine], the IC50 at protein kinase D2 (PKD2) (setting [1]) stood at 169 nM; at protein kinase D3 (PKD3) (setting [2]) it was 39 nM.
Regarding `NC(=O)C1CCN(c2nc(-c3ccnc(NC4CCCCC4)c3)cc3cnccc23)CC1` [Example 10, 1-[3-(2-Cyclohexylaminopyridin-4-yl)-[2,6]naphthyridin-1-yl]piperidine-4-carboxylic acid amide], the results for the IC50 on protein kinase D2 (PKD2) and at protein kinase D3 (PKD3) (setting [2]) were 414 nM and 83 nM, respectively.
Take `CC(=O)N1CCN(c2nc(-c3ccnc(NC4CCCCC4)c3)cc3cnccc23)CC1` [Example 11, 1-{4-[3-(2-Cyclohexylaminopyridin-4-yl)-[2,6]naphthyridin-1-yl]piperazin-1-yl}ethanone]: the results for the IC50 at protein kinase D2 (PKD2) (setting [1]) and at protein kinase D3 (PKD3) (setting [2]) were 137 nM and 23 nM, respectively.
With `CN(C)CC1CCN(c2nc(-c3ccnc(NC4CCCCC4)c3)cc3cnccc23)CC1` [Example 12, Cyclohexyl-{4-[1-(4-dimethylaminomethylpiperidin-1-yl)-[2,6]naphthyridin-3-yl]pyridin-2-yl}amine], the IC50 came to 63 nM on protein kinase D2 (PKD2) (setting [1]) and 21 nM at protein kinase D3 (PKD3) (setting [2]).
For `CN1CCN(c2nc(-c3ccnc(NC4CCCCC4)c3)cc3cnccc23)CC1` [Example 13, Cyclohexyl-{4-[1-(4-methylpiperazin-1-yl)-[2,6]naphthyridin-3-yl]pyridin-2-yl}amine], the IC50 on protein kinase D2 (PKD2) worked out at 14 nM; at protein kinase D3 (PKD3), 1 nM.
Consider `c1cc2c(NC3CCNC3)nc(-c3ccnc(NC4CCCCC4)c3)cc2cn1` (stereo not drawn) [Example 14, [3-(2-Cyclohexylaminopyridin-4-yl)-[2,6]naphthyridin-1-yl]pyrrolidin-3-ylamine], for which the IC50 on protein kinase D2 (PKD2) (setting [1]) stood at 6 nM; on protein kinase D3 (PKD3) (setting [2]), 1 nM.
As to `c1cc2c(NC3CCCNC3)nc(-c3ccnc(NC4CCCCC4)c3)cc2cn1` (stereo not drawn) [Example 15, [3-(2-Cyclohexylaminopyridin-4-yl)-[2,6]naphthyridin-1-yl]piperidin-3-ylamine], the values for the IC50 at protein kinase D2 (PKD2) (setting [1]) and at protein kinase D3 (PKD3) (setting [2]) were 102 nM and 19 nM, respectively.
With `O=C(NCCO)C1CCN(c2nc(-c3ccnc(NC4CCOCC4)c3)cc3cnccc23)CC1` [Example 16, 1-{3-[2-(Tetrahydropyran-4-ylamino)pyridin-4-yl]-[2,6]naphthyridin-1-yl}piperidine-4-carboxylic acid (2-hydroxyethyl)amide], the IC50 against protein kinase D2 (PKD2) is 11 nM; on protein kinase D3 (PKD3) (setting [2]) it was 2 nM.
In the case of `O=C(NC1CC1)C1CCN(c2nc(-c3ccnc(NC4CCOCC4)c3)cc3cnccc23)CC1` [Example 17, 1-{3-[2-(Tetrahydropyran-4-ylamino)pyridin-4-yl]-[2,6]naphthyridin-1-yl}piperidine-4-carboxylic acid cyclopropylamide], the IC50 amounted to 14 nM on protein kinase D2 (PKD2) (setting [1]) and 3 nM at protein kinase D3 (PKD3) (setting [2]).
As for `CCNC(=O)N1CCN(c2nc(-c3ccnc(Nc4ccn(C)n4)c3)cc3cnccc23)CC1` [Example 18, 4-{3-[2-(1-Methyl-1H-pyrazol-3-ylamino)pyridin-4-yl]-[2,6]naphthyridin-1-yl}piperazine-1-carboxylic acid ethylamide], the IC50 came out at 127 nM at protein kinase D2 (PKD2) (setting [1]) and 30 nM at protein kinase D3 (PKD3) (setting [2]).
